Target: T1, glucocorticoid receptor (Homo sapiens, UniProt P04150)
T1 sequence (P04150 1-777): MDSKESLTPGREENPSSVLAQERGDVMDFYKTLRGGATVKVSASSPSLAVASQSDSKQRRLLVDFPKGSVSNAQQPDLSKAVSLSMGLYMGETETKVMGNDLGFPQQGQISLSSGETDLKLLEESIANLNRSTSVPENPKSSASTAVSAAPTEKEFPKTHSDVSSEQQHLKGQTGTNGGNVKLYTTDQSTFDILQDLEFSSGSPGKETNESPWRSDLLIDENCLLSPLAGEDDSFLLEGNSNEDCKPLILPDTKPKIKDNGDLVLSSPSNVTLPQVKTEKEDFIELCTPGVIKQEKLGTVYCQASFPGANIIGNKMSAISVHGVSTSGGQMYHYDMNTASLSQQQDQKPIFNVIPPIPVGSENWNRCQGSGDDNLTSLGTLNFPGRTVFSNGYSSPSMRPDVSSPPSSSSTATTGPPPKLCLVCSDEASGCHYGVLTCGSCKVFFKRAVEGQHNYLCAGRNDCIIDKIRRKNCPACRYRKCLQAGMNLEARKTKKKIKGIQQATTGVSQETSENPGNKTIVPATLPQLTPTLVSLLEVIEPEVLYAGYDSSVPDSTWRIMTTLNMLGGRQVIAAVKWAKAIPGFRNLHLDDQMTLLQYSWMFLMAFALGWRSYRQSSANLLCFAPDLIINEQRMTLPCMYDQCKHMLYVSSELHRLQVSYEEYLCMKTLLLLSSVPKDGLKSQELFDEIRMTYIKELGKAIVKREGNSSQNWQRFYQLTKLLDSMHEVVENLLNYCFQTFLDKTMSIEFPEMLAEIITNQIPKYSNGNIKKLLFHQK
Experiment: Western Blot analysis of glucocorticoid receptor translocation into the nucleus in U937 cells
Details: nuclear extract, GR band at approximately 94 kDa by densitometry, control = 100, proportional to increase in GR translocation into the nucleus

## OCc1cc(C(O)CNCCCCCCOCCCCc2ccccc2)ccc1O (stereo not shown) [Salmeterol]
  % Change in Band Density: 183 ± 12%

Source: US20030026766A1 (priority 2000, published 2003)
